The source of these data is patent US20250145609A1, “3-SUBSTITUTED PYRIDAZINE COMPOUNDS AS SMARCA2 AND/OR SMARCA4 DEGRADERS” (Aurigene Oncology Limited, priority 2022, published 2025).

A value given as a limit tells only on which side of the number the result lay.

What all share (assay type): cell-based
For assay [1], the system named is VCaP cells. Briefly: Anti proliferative activity in VCaP cell line by CellTiter Glo assay. To be noted: Homo sapiens; for EC50: VCaP, 192 h, 8 days incubation, CellTiter Glo luminescence. The method, then: Example-P1: Determination of Anti Proliferative Activity of Compounds in Cell Lines VCaP by Cell Titer Glo©(Promega) Assay
VCaP (ATCC CRL-2876) cells were seeded in 96 well plate flat black clear bottom plates (Corning, Cat. No 3904) using complete DMEM Medium. Next day, compounds listed in the present invention were added to cells from 10 mM stocks made in DMSO (Sigma Cat no. D2650). Each concentration of compound was tested in triplicate with DMSO concentration at a final percentage not exceeding 0.3 in the cells. After the incubation of VCaP cells with compound for 8 days assay was terminated using 50 μl of CellTiter Glo© reagent (Promega, Cat. no G7572). CellTiter-Glo® Luminescent reagent determines the number of viable cells based on quantitation of ATP present which is an indicator of cell number and metabolic activity. Luminescence readings were taken in Victor-3 instrument. Percent inhibition of proliferation was calculated using formula, % inhibition=100−(luminescence value of test/luminescence value of DMSO control)*100. DMSO control (0%)=Cells in complete media with DMSO; blank=Media alone containing DMSO. EC50 was calculated using graph pad prism software.
Herein the group “A” refers to EC50 values lower than l0 nM, group “B” refers to EC50 values between l0 nM-100 nM (both inclusive) and group “C” refers to EC50 values greater than 100 nM.
On the technique in general: ATP-based viability assays read luminescence as a measure of living cells.

For assay [2], the target named is T1, SMARCA2 (Homo sapiens, UniProt P51531).
T1 construct: endogenous in cells; host or cells: VCaP (ATCC CRL-2876)
T1 sequence (P51531 whole entry): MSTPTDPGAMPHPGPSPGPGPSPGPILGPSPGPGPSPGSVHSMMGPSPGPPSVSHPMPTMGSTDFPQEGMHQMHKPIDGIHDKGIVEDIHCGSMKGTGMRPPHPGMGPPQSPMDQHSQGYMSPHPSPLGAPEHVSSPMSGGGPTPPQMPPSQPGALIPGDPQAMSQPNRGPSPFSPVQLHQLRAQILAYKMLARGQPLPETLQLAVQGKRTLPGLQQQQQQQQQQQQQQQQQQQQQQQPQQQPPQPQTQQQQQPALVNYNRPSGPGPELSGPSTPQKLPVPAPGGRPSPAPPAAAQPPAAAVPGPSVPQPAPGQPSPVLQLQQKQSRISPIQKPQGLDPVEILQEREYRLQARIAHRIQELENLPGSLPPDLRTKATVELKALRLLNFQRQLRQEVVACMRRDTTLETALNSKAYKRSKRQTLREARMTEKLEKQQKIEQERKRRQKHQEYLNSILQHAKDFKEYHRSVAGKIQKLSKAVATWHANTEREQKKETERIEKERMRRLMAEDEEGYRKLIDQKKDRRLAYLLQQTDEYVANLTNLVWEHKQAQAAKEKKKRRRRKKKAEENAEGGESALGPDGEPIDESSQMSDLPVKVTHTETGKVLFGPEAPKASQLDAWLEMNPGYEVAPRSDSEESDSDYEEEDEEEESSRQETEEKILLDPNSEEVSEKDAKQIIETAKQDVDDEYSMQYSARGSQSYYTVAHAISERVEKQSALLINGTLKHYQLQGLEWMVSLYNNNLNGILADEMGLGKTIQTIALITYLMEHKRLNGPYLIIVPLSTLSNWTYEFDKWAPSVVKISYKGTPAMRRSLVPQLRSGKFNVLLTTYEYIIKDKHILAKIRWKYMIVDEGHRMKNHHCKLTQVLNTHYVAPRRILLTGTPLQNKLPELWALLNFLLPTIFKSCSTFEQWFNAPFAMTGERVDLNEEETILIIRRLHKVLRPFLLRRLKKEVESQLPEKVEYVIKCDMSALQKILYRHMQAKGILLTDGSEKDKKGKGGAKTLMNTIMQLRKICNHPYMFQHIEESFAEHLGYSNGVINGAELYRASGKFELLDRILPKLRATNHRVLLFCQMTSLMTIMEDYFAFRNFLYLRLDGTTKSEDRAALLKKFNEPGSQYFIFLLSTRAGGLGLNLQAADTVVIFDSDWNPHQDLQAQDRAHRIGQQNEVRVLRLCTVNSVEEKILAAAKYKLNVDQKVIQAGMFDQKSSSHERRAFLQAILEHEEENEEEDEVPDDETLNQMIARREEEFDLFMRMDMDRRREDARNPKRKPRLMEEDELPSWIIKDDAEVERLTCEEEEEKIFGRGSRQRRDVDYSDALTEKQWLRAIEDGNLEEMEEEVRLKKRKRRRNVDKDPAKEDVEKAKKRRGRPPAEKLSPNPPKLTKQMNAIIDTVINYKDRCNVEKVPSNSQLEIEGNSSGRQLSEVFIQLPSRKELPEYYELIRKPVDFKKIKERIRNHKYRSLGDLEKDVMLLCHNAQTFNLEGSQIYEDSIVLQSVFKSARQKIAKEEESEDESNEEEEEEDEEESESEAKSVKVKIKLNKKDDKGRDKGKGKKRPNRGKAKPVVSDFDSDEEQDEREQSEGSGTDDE
Briefly: SMARCA2 degradation in VCaP cells by Western blot. The conditions noted are these: at 100 nM, 16 hours. The method, then:
(§1) Example-P2: Determination of SMARCA2 and SMARCA4 Degradation in VCaP Cells by Western Blot
(§2) VCaP (ATCC CRL-2876) was plated in 6 well plates using complete Dulbecco's Modified Eagle's Medium. On the third day, compounds of present invention were added to cells from 10 mM stocks made in DMSO (Sigma Cat no. D2650). Each compound was tested at 100 nM concentration with DMSO not exceeding final percentage of 0.3 in the cells. Cells were incubated with the compound for 16 hours followed by harvesting with 1×RIPA lysis buffer (Thermo Fischer, catalogue number #89900) containing protease inhibitor cocktail (Sigma catalogue number #P-8340). Equal amount of protein was loaded on SDS PAGE gel for electrophoresis. Western blot was carried out for detection of either SMARCA2 (Cell signalling technologies, catalogue number #11966) or SMARCA4 antibody (Cell signalling technologies, catalogue number #52251). Beta-Tubulin antibody (Cell signalling technologies, catalogue number #86298) was used as loading control. Percentage of SMARCA2 or SMARCA4 degradation was calculated by using formula: […]
For orientation: In western blotting, separated proteins are transferred to a membrane and probed.

For assay [3], the target named is T2, SMARCA4 (Homo sapiens, UniProt P51532).
T2 construct: endogenous in cells; host or cells: VCaP (ATCC CRL-2876)
T2 sequence (P51532 whole entry): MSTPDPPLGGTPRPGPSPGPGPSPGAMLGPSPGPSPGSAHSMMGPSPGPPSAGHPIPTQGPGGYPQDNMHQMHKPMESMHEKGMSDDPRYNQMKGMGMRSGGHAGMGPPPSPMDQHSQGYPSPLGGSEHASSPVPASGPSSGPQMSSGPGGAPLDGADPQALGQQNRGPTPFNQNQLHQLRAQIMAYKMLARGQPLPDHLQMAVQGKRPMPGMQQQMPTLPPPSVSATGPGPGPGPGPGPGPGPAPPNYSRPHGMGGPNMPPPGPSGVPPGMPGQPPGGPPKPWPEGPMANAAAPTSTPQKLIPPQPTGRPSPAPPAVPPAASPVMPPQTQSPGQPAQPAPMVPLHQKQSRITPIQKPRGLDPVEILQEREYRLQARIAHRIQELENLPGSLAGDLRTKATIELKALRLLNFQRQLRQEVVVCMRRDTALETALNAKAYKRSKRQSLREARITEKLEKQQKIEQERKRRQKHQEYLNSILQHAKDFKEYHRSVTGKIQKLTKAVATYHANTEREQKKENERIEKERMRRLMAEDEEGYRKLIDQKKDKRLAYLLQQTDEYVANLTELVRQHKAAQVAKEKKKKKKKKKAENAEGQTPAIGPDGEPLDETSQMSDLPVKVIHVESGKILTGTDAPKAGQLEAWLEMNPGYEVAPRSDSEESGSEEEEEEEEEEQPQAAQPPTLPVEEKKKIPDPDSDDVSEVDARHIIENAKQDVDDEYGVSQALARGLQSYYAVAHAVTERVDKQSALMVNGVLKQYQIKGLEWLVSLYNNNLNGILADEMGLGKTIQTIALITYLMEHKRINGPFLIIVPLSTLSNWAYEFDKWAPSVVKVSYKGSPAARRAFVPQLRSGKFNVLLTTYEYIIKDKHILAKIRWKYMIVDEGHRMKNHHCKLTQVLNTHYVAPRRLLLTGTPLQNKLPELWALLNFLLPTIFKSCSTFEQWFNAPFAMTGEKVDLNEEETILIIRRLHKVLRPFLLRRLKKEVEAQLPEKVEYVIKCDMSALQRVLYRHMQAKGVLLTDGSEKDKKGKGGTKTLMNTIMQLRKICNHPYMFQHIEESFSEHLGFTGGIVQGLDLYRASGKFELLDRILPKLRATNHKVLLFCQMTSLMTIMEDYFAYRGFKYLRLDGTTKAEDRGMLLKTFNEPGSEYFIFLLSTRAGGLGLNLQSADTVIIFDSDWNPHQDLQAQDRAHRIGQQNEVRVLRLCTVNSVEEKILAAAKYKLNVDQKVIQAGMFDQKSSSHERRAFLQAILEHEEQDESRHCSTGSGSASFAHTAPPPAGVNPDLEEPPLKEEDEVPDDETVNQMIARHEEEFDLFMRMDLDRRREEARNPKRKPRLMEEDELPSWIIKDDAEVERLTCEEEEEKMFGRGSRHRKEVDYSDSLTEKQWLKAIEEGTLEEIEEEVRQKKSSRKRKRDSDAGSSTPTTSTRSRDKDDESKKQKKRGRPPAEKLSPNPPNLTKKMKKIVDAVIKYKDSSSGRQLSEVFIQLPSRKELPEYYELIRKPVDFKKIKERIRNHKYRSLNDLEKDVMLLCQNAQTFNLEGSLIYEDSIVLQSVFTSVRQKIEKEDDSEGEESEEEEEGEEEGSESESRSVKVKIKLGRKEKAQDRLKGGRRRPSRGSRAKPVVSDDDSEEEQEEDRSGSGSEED
Briefly: SMARCA4 degradation in VCaP cells by Western blot. The conditions noted are these: at 100 nM; for Percent SMARCA4 degradation at 0.1 µM: VCaP, 16 h; for Percent degradation SMARCA4: 16 hours. The method, then:
as §1, §2

As usually defined, the EC50 is the midpoint of the concentration-response curve. Higher therefore signals weaker potency.

Regarding `Cc1ncsc1-c1ccc([C@H](C)NC(=O)[C@@H]2C[C@@H](O)CN2C(=O)C(c2cc(N3CCC(N4CCN(c5ccc(-c6cc(-c7ccccc7O)nnc6N)cc5)CC4)CC3)no2)C(C)C)cc1` (stereo partly drawn) [Compound 59, (2S,4R)-1-(2-(3-(4-(4-(4-(3-amino-6-(2-hydroxyphenyl)pyridazin-4-yl)phenyl)piperazin-1-yl)piperidin-1-yl)isoxazol-5-yl)-3-methylbutanoyl)-4-hydroxy-N—((S)-1-(4-(4-methylthiazol-5-yl)phenyl)ethyl)pyrrolidine-2-carboxamide], in assay [1], the EC50 is below 10 nM.
The molecule `Cc1ncsc1-c1ccc([C@H](C)NC(=O)[C@@H]2C[C@@H](O)CN2C(=O)[C@@H](NC(=O)CC2CCN(c3ccc(-c4cc(-c5ccccc5O)nnc4N)cc3)CC2)C(C)(C)C)cc1` [Compound 38, (2S,4R)-1-((S)-2-(2-(1-(4-(3-amino-6-(2-hydroxyphenyl)pyridazin-4-yl)phenyl)piperidin-4-yl)acetamido)-3,3-dimethylbutanoyl)-4-hydroxy-N-((S)-1-(4-(4-methylthiazol-5-yl)phenyl)ethyl)pyrrolidine-2-carboxamide] had a 50% effective concentration (EC50) in assay [1] of 10 to 100 nM. Moreover, the “Percent degradation SMARCA2” value in assay [2] worked out at 100%. The same molecule came in with a Percent SMARCA4 degradation at 0.1 µM in assay [3] of 91%.
In the same order, the values of `Cc1ncsc1-c1ccc([C@H](C)NC(=O)[C@@H]2C[C@@H](O)CN2C(=O)[C@@H](NC(=O)CN2CCC(O)(c3ccc(-c4cc(-c5ccccc5O)nnc4N)cc3)CC2)C(C)(C)C)cc1` [Compound 48, (2S,4R)-1-((S)-2-(2-(4-(4-(3-amino-6-(2-hydroxyphenyl)pyridazin-4-yl)phenyl)-4-hydroxypiperidin-1-yl)acetamido)-3,3-dimethylbutanoyl)-4-hydroxy-N-((S)-1-(4-(4-methylthiazol-5-yl)phenyl)ethyl)pyrrolidine-2-carboxamide] are 10 to 100 nM, 97% and 20%.
In turn, `Cc1ncsc1-c1ccc([C@H](C)NC(=O)[C@@H]2C[C@@H](O)CN2C(=O)[C@@H](c2cc(-c3ccc(-c4cc(-c5ccccc5O)nnc4N)cc3)no2)C(C)C)cc1` [Compound 6, (2S,4R)-1-((R)-2-(3-(4-(3-amino-6-(2-hydroxyphenyl)pyridazin-4-yl)phenyl)isoxazol-5-yl)-3-methylbutanoyl)-4-hydroxy-N—((S)-1-(4-(4-methylthiazol-5-yl)phenyl)ethyl)pyrrolidine-2-carboxamide] returned a half-maximal effective concentration (EC50) in assay [1] of 10 to 100 nM. In addition, the “Percent degradation SMARCA2” value in assay [2] was 100%. Further, in assay [3], the Percent SMARCA4 degradation at 0.1 µM was found to be 85%.
`Cc1ncsc1-c1ccc([C@H](C)NC(=O)[C@@H]2C[C@@H](O)CN2C(=O)[C@@H](NC(=O)C2CCC(c3ccc(-c4cc(-c5ccccc5O)nnc4N)cc3)CC2)C(C)(C)C)cc1` (single isomer, unassigned) [Compound 42] returned an EC50 in assay [1] below 10 nM. Also, the “Percent degradation SMARCA2” value in assay [2] turned out to be 99%. For the same molecule, the “Percent degradation SMARCA4” value in assay [3] turned out to be 94%.
Molecule `Cc1ncsc1-c1ccc([C@H](C)NC(=O)[C@@H]2C[C@@H](O)CN2C(=O)[C@@H](NC(=O)COc2ccc(-c3cc(-c4cc(F)ccc4O)nnc3N)cc2)C(C)(C)C)cc1` [Compound 1, (2S,4R)-1-((S)-2-(2-(4-(3-amino-6-(5-fluoro-2-hydroxyphenyl)pyridazin-4-yl)phenoxy)acetamido)-3,3-dimethylbutanoyl)-4-hydroxy-N—((S)-1-(4-(4-methylthiazol-5-yl)phenyl)ethyl)pyrrolidine-2-carboxamide] returned an EC50 in assay [1] of 10 to 100 nM.
Take `Cc1ncsc1-c1ccc([C@H](C)NC(=O)[C@@H]2C[C@@H](O)CN2C(=O)[C@@H](NC(=O)CN2CCN(c3ccc(-c4cc(-c5ccccc5O)nnc4N)cc3)C(=O)C2)C(C)(C)C)cc1` [Compound 39, (2S,4R)-1-((S)-2-(2-(4-(4-(3-amino-6-(2-hydroxyphenyl)pyridazin-4-yl)phenyl)-3-oxopiperazin-1-yl)acetamido)-3,3-dimethylbutanoyl)-4-hydroxy-N-((S)-1-(4-(4-methylthiazol-5-yl)phenyl)ethyl)pyrrolidine-2-carboxamide]: in assay [1], the concentration giving a half-maximal response (EC50) was above 100 nM. Moreover, in assay [2], the “Percent degradation SMARCA2” value is given as 78%. Also, in assay [3], the Percent SMARCA4 degradation at 0.1 µM turned out to be 0%.
Take `Cc1ncsc1-c1ccc([C@H](C)NC(=O)[C@@H]2C[C@@H](O)CN2C(=O)[C@@H](NC(=O)C(C)N2CCC(c3ccc(-c4cc(-c5ccccc5O)nnc4N)cc3)CC2)C(C)(C)C)cc1` (mixture of isomers) [Compound 32, (2S,4R)-1-((2S)-2-(2-(4-(4-(3-amino-6-(2-hydroxyphenyl)pyridazin-4-yl)phenyl)piperidin-1-yl)propanamido)-3,3-dimethylbutanoyl)-4-hydroxy-N-((S)-1-(4-(4-methylthiazol-5-yl)phenyl)ethyl)pyrrolidine-2-carboxamide]: the EC50 in assay [1] was above 100 nM. Further, the “Percent degradation SMARCA2” value in assay [2] came to 90%. This molecule had a Percent SMARCA4 degradation at 0.1 µM in assay [3] of 0%.
In assay [1], `Cc1ncsc1-c1ccc([C@H](C)NC(=O)[C@@H]2C[C@@H](O)CN2C(=O)C(N2CCC(N3CCN(c4ccc(-c5cc(-c6ccccc6O)nnc5N)cc4)CC3)CC2)C(C)(C)C)cc1` (stereo partly drawn) [Compound 60, (2S,4R)-1-(2-(4-(4-(4-(3-amino-6-(2-hydroxyphenyl)pyridazin-4-yl)phenyl)piperazin-1-yl)piperidin-1-yl)-3,3-dimethylbutanoyl)-4-hydroxy-N—((S)-1-(4-(4-methylthiazol-5-yl)phenyl)ethyl)pyrrolidine-2-carboxamide] displayed an EC50 above 100 nM. In assay [1] (at 1 μM, read-out: % inhibition of proliferation), the inhibition at 1 µM turned out to be 20%.
Regarding `Cc1ncsc1-c1ccc([C@H](C)NC(=O)[C@@H]2C[C@@H](O)CN2C(=O)[C@@H](NC(=O)CCCC#Cc2ccc(-c3cc(-c4cc(F)ccc4O)nnc3N)cc2)C(C)(C)C)cc1` [Compound 23, (2S,4R)-1-((S)-2-(6-(4-(3-amino-6-(5-fluoro-2-hydroxyphenyl)pyridazin-4-yl)phenyl)hex-5-ynamido)-3,3-dimethylbutanoyl)-4-hydroxy-N-((S)-1-(4-(4-methylthiazol-5-yl)phenyl)ethyl)pyrrolidine-2-carboxamide], the “Percent degradation SMARCA2” value in assay [2] came to 82%. Also, in assay [3], the Percent SMARCA4 degradation at 0.1 µM is 49%.
Regarding `Cc1ncsc1-c1ccc([C@H](C)NC(=O)[C@@H]2C[C@@H](O)CN2C(=O)[C@@H](NC(=O)CN2CCC(N(C)c3ccc(-c4cc(-c5ccccc5O)nnc4N)cc3)CC2)C(C)(C)C)cc1` [Compound 55, (2S,4R)-1-((S)-2-(2-(4-((4-(3-amino-6-(2-hydroxyphenyl)pyridazin-4-yl)phenyl)(methyl)amino)piperidin-1-yl)acetamido)-3,3-dimethylbutanoyl)-4-hydroxy-N—((S)-1-(4-(4-methylthiazol-5-yl)phenyl)ethyl)pyrrolidine-2-carboxamide], in assay [2], the “Percent degradation SMARCA2” value is given as 99%. In addition, the Percent SMARCA4 degradation at 0.1 µM in assay [3] is 71%.
For `Cc1ncsc1-c1ccc([C@H](C)NC(=O)[C@@H]2C[C@@H](O)CN2C(=O)[C@@H](NC(=O)CN2CCC(c3cccc(-c4cc(-c5ccccc5O)nnc4N)c3)CC2)C(C)(C)C)cc1` [Compound 46, (2S,4R)-1-((S)-2-(2-(4-(3-(3-amino-6-(2-hydroxyphenyl)pyridazin-4-yl)phenyl)piperidin-1-yl)acetamido)-3,3-dimethylbutanoyl)-4-hydroxy-N-((S)-1-(4-(4-methylthiazol-5-yl)phenyl)ethyl)pyrrolidine-2-carboxamide] the same measures were 98% and 96%.
As to `Cc1ncsc1-c1ccc([C@H](C)NC(=O)[C@@H]2C[C@@H](O)CN2C(=O)[C@@H](NC(=O)C2CCC(c3ccc(-c4cc(-c5ccccc5O)nnc4N)cc3)CC2)C(C)(C)C)cc1` (single isomer, unassigned) [Compound 41], the “Percent degradation SMARCA2” value in assay [2] is 92%. The “Percent degradation SMARCA4” value in assay [3] came out at 52%.
